Experimental data reported in patent US9029370B2, “Substituted benzamide derivatives” (Hoffmann-La Roche Inc., priority 2011, dated 2015).
Where a name gives a salt, the structure may show the parent alone.

What was measured:
mouse TAAR1 = mouse TAAR1 (Mus musculus (Mouse), UniProt Q923Y8); test: Radioligand binding assay on mouse TAAR1; conditions: mouse TAAR1, HEK-293 membranes; first value of the pair (before the slash); read-out: Ki (μM) mouse/rat
Method in brief: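 Membranes from HEK293 cells stably expressing mouse TAAR1, in HEPES-NaOH pH 7.4 with 0.1 mM EDTA, were incubated 1 h at 4°C with tritiated (S)-4-[(ethyl-phenyl-amino)-methyl]-4,5-dihydro-oxazol-2-ylamine and compound (10 pM–10 μM, duplicates). Nonspecific binding defined with 10 μM unlabeled ligand; bound radioactivity by filtration and scintillation counting.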

rat TAAR1 = rat TAAR1 (Rattus norvegicus (Rat), UniProt Q923Y9); test: Radioligand binding assay on rat TAAR1; conditions: rat TAAR1, HEK-293 membranes; second value of the pair (line below); read-out: Ki (μM) mouse/rat
rat TAAR1, sequence (Q923Y9 whole entry): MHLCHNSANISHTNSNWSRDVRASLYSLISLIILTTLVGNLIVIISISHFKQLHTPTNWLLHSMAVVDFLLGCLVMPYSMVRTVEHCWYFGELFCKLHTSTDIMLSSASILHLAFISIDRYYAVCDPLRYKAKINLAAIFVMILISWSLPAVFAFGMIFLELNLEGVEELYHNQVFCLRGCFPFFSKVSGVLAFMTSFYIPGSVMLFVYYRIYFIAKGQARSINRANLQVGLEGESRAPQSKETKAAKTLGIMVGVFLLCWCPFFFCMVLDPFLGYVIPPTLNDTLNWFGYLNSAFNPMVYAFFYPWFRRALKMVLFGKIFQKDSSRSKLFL
Method in brief: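 Membranes from HEK293 cells stably expressing rat TAAR1 were incubated 1 hr at 4 °C with ^3[H]-(S)-4-[(ethyl-phenyl-amino)-methyl]-4,5-dihydro-oxazol-2-ylamine; nonspecific binding was defined with 10 μM unlabeled ligand. Compounds were tested at 10 pM to 10 μM in duplicate. Bound radioactivity was read by filtration and scintillation counting.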

mouse TAAR1, sequence (Q923Y8 whole entry): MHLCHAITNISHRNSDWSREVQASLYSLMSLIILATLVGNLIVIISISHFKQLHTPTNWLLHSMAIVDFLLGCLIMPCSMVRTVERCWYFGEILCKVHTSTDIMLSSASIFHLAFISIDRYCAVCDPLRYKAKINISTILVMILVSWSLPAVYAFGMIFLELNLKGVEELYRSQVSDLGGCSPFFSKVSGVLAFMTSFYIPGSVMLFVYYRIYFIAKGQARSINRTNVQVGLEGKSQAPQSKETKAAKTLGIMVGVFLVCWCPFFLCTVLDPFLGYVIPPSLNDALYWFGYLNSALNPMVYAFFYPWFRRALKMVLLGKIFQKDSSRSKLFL

SMILES	Ki (mouse TAAR1) [µM]	Ki (rat TAAR1) [µM]
CCOc1cc(C(=O)Nc2ccc([C@H]3CNCCO3)c(Cl)c2)ccn1 [Example 94, (S)—N-(3-Chloro-4-(morpholin-2-yl)phenyl)-2-ethoxyisonicotinamide hydrochloride]	0.0033	0.0381
CCOc1ccc(C(=O)Nc2ccc([C@H]3CNCCO3)c(Cl)c2)cn1 [Example 95, (S)—N-(3-Chloro-4-(morpholin-2-yl)phenyl)-6-ethoxynicotinamide hydrochloride]	0.0033	0.035
O=C(Nc1ccc([C@H]2CNCCO2)c(Cl)c1)c1cnn(-c2ccc(OC(F)F)cc2)c1 [Example 96, (S)—N-(3-Chloro-4-(morpholin-2-yl)phenyl)-1-(4-(difluoromethoxy)phenyl)-1H-pyrazole-4-carboxamide hydrochloride]	0.0013	0.0006
N#Cc1ccc(-n2cc(C(=O)Nc3ccc([C@H]4CNCCO4)cc3Cl)cn2)cc1 [Example 103, (S)—N-(2-Chloro-4-(morpholin-2-yl)phenyl)-1-(4-cyanophenyl)-1H-pyrazole-4-carboxamide hydrochloride]	0.0052	0.0031
O=C(Nc1ccc([C@H]2CNCCO2)cc1F)c1cn(-c2ccc(OC(F)F)cc2)nn1 [Example 104, (S)-1-(4-(Difluoromethoxy)phenyl)-N-(2-fluoro-4-(morpholin-2-yl)phenyl)-1H-1,2,3-triazole-4-carboxamide]	0.0019	0.034
N#Cc1ccc(-n2cc(C(=O)Nc3ccc([C@H]4CNCCO4)c(Cl)c3)cn2)cc1 [Example 105, (S)—N-(3-Chloro-4-(morpholin-2-yl)phenyl)-1-(4-cyanophenyl)-1H-pyrazole-4-carboxamide hydrochloride]	0.0032	0.0027
COc1cc(C(=O)Nc2ccc([C@H]3CNCCO3)c(F)c2)cc(C#N)n1 [Example 107, (S)-2-Cyano-N-(3-fluoro-4-(morpholin-2-yl)phenyl)-6-methoxyisonicotinamide hydrochloride]	0.0093	0.0065
N#Cc1ccc(-n2cc(C(=O)Nc3ccc([C@H]4CNCCO4)c(F)c3)cn2)c(F)c1 [Example 108, (S)-1-(4-Cyano-2-fluorophenyl)-N-(3-fluoro-4-(morpholin-2-yl)phenyl)-1H-pyrazole-4-carboxamide hydrochloride]	0.0054	0.0059
N#Cc1ccc(-n2cc(C(=O)Nc3ccc([C@H]4CNCCO4)c(Cl)c3)cn2)c(F)c1 [Example 109, (S)—N-(3-Chloro-4-(morpholin-2-yl)phenyl)-1-(4-cyano-2-fluorophenyl)-1H-pyrazole-4-carboxamide hydrochloride]	0.0026	0.0038
N#Cc1ccc(-n2cc(C(=O)Nc3ccc([C@H]4CNCCO4)cc3F)cn2)c(F)c1 [Example 110, (S)-1-(4-Cyano-2-fluorophenyl)-N-(2-fluoro-4-(morpholin-2-yl)phenyl)-1H-pyrazole-4-carboxamide hydrochloride]	0.0088	0.0152
N#Cc1ccc(-n2cc(C(=O)Nc3ccc([C@H]4CNCCO4)cc3F)cn2)cc1 [Example 111, (S)-1-(4-Cyanophenyl)-N-(2-fluoro-4-(morpholin-2-yl)phenyl)-1H-pyrazole-4-carboxamide hydrochloride]	0.0074	0.0086
Cc1cc(C(=O)Nc2ccc([C@H]3CNCCO3)c(Cl)c2)cc(C#N)n1 [Example 112, (S)—N-(3-Chloro-4-(morpholin-2-yl)phenyl)-2-cyano-6-methylisonicotinamide hydrochloride]	0.0259	0.0248
Cc1cc(C(=O)Nc2ccc([C@H]3CNCCO3)cc2F)cc(C#N)n1 [Example 113, (S)-2-Cyano-N-(2-fluoro-4-(morpholin-2-yl)phenyl)-6-methylisonicotinamide hydrochloride]	0.0481	0.0654
Cc1cc(C(=O)Nc2ccc([C@H]3CNCCO3)c(F)c2)cc(C(N)=O)n1 [Example 114, (S)—N4-(3-Fluoro-4-(morpholin-2-yl)phenyl)-6-methylpyridine-2,4-dicarboxamide hydrochloride]	0.0649	0.265
Cc1cc(C(=O)Nc2ccc([C@H]3CNCCO3)c(F)c2)cc(C#N)n1 [Example 115, (S)-2-Cyano-N-(3-fluoro-4-(morpholin-2-yl)phenyl)-6-methylisonicotinamide hydrochloride]	0.029	0.0343
NC(=O)c1cc(C(=O)Nc2ccc([C@H]3CNCCO3)c(F)c2)cc(Cl)n1 [Example 116, (S)-6-Chloro-N4-(3-fluoro-4-(morpholin-2-yl)phenyl)pyridine-2,4-dicarboxamide hydrochloride]	0.0512	0.162

SMILES	Ki (mouse TAAR1) [µM]	Ki (rat TAAR1) [µM]
CCc1cc(C(=O)Nc2ccc([C@H]3CNCCO3)c(F)c2)cc(C(N)=O)n1 [Example 117, (S)-6-Ethyl-N4-(3-fluoro-4-(morpholin-2-yl)phenyl)pyridine-2,4-dicarboxamide hydrochloride]	0.0284	0.045
Cc1cc(C(=O)Nc2ccc([C@H]3CNCCO3)c(Cl)c2)cc(C(N)=O)n1 [Example 118, (S)—N4-(3-Chloro-4-(morpholin-2-yl)phenyl)-6-methylpyridine-2,4-dicarboxamide hydrochloride]	0.0416	0.264
Cc1cc(C(=O)Nc2ccc([C@H]3CNCCO3)cc2F)cc(C(N)=O)n1 [Example 119, (S)—N4-(2-Fluoro-4-(morpholin-2-yl)phenyl)-6-methylpyridine-2,4-dicarboxamide hydrochloride]	0.0844	0.687
COc1cc(C(=O)Nc2ccc([C@H]3CNCCO3)cc2F)cc(C(N)=O)n1 [Example 120, (S)—N4-(2-Fluoro-4-(morpholin-2-yl)phenyl)-6-methoxypyridine-2,4-dicarboxamide hydrochloride]	0.0851	0.426
COc1cc(C(=O)Nc2ccc([C@H]3CNCCO3)cc2F)cc(C#N)n1 [Example 121, (S)-2-Cyano-N-(2-fluoro-4-(morpholin-2-yl)phenyl)-6-methoxyisonicotinamide hydrochloride]	0.0145	0.0158
Cc1cc(C(=O)Nc2ccc([C@H]3CNCCO3)cc2Cl)cc(C(N)=O)n1 [Example 122, (S)—N4-(2-Chloro-4-(morpholin-2-yl)phenyl)-6-methylpyridine-2,4-dicarboxamide hydrochloride]	0.14	0.758
Cc1cc(C(=O)Nc2ccc([C@H]3CNCCO3)cc2Cl)cc(C#N)n1 [Example 123, (S)—N-(2-Chloro-4-(morpholin-2-yl)phenyl)-2-cyano-6-methylisonicotinamide hydrochloride]	0.0413	0.0474
COc1cc(C(=O)Nc2ccc([C@H]3CNCCO3)cc2Cl)cc(C#N)n1 [Example 124, (S)—N-(2-Chloro-4-(morpholin-2-yl)phenyl)-2-cyano-6-methoxyisonicotinamide hydrochloride]	0.0235	0.0231
O=C(Nc1ccc([C@H]2CNCCO2)cc1F)c1cnn(-c2cncc(C(F)(F)F)n2)c1 [Example 125, (S)—N-(2-Fluoro-4-(morpholin-2-yl)phenyl)-1-(6-(trifluoromethyl)pyrazin-2-yl)-1H-pyrazole-4-carboxamide hydrochloride]	0.0182	0.0076
O=C(Nc1ccc([C@H]2CNCCO2)cc1Cl)c1cnn(-c2cncc(C(F)(F)F)n2)c1 [Example 126, (S)—N-(2-Chloro-4-(morpholin-2-yl)phenyl)-1-(6-(trifluoromethyl)pyrazin-2-yl)-1H-pyrazole-4-carboxamide hydrochloride]	0.0202	0.0047
O=C(Nc1ccc([C@H]2CNCCO2)c(F)c1)c1cnn(-c2cncc(C(F)(F)F)n2)c1 [Example 127, (S)—N-(3-Fluoro-4-(morpholin-2-yl)phenyl)-1-(6-(trifluoromethyl)pyrazin-2-yl)-1H-pyrazole-4-carboxamide hydrochloride]	0.007	0.0016
O=C(Nc1ccc([C@H]2CNCCO2)c(Cl)c1)c1cnn(-c2cncc(C(F)(F)F)n2)c1 [Example 128, (S)—N-(3-Chloro-4-(morpholin-2-yl)phenyl)-1-(6-(trifluoromethyl)pyrazin-2-yl)-1H-pyrazole-4-carboxamide hydrochloride]	0.0088	0.0025
O=C(Nc1ccc([C@H]2CNCCO2)c(F)c1)c1cnn(-c2cc(C(F)(F)F)ncn2)c1 [Example 129, (S)—N-(3-Fluoro-4-(morpholin-2-yl)phenyl)-1-(6-(trifluoromethyl)pyrimidin-4-yl)-1H-pyrazole-4-carboxamide hydrochloride]	0.0073	0.0025
O=C(Nc1ccc([C@H]2CNCCO2)c(F)c1)c1cnn(-c2ccc(C(F)(F)F)nc2)c1 [Example 130, (S)—N-(3-Fluoro-4-(morpholin-2-yl)phenyl)-1-(6-(trifluoromethyl)pyridin-3-yl)-1H-pyrazole-4-carboxamide hydrochloride]	0.0075	0.0038
N#Cc1cnc(-n2cc(C(=O)Nc3ccc([C@H]4CNCCO4)c(F)c3)cn2)cn1 [Example 131, (S)-1-(5-Cyanopyrazin-2-yl)-N-(3-fluoro-4-(morpholin-2-yl)phenyl)-1H-pyrazole-4-carboxamide hydrochloride]	0.0254	0.0144
N#Cc1cc(Cl)cc(C(=O)Nc2ccc([C@H]3CNCCO3)c(F)c2)n1 [Example 133, (S)-4-Chloro-6-cyano-N-(3-fluoro-4-(morpholin-2-yl)phenyl)picolinamide hydrochloride]	0.0095	0.018
